In US8410128B2, “Triazolopyridine compounds useful as kinase inhibitors” (Bristol-Myers Squibb Company, priority 2008, dated 2013) one finds IC50 data, which are given here for one compound.

The target of this test is T1, p38 (Homo sapiens, UniProt Q16539).
T1 construct: GST (N); made in house; host or cells: E. coli
Kind of test: p38 Assay (33P-ATP/MBP filter kinase assay). It counts as biochemical. Particulars: bacterially expressed, activated p38 10 nM; ATP 1 μM; MBP substrate; 25° C., 45 min. As for the experimental part:
Generation of p38 Kinases
For this assay, cDNAs of human p38α, β, and γ isozymes were cloned by PCR. These cDNAs were subcloned in the pGEX expression vector (Pharmacia). GST-p38 fusion protein was expressed in E. Coli and purified from bacterial pellets by affinity chromatography using glutathione agarose. p38 fusion protein was activated by incubating with constitutively active MKK6. Active p38 was separated from MKK6 by affinity chromatography. Constitutively active MKK6 was generated according to Raingeaud et al. (Mol. Cell. Biol., 1247-1255 (1996)).
The assays were performed in V-bottomed 96-well plates. The final assay volume was 60 μl prepared from three 20 μl additions of enzyme, substrates (MBP and ATP) and test compounds in assay buffer (50 mM Tris pH 7.5, 10 mM MgCl2, 50 mM NaCl and 1 mM DTT). Bacterially expressed, activated p38 was pre-incubated with test compounds for 10 min. prior to initiation of reaction with substrates. The reaction was incubated at 25° C. for 45 min. and terminated by adding 5 μl of 0.5 M EDTA to each sample. […] The filtermat was then dried in a microwave oven for 1 min., treated with MELTILEX® A scintillation wax (Wallac), and counted on a MICROBETA® scintillation counter Model 1450 (Wallac). Inhibition data were analyzed by nonlinear least-squares regression using PRIZM® (GraphPadSoftware). […]

T1 sequence (Q16539 whole entry): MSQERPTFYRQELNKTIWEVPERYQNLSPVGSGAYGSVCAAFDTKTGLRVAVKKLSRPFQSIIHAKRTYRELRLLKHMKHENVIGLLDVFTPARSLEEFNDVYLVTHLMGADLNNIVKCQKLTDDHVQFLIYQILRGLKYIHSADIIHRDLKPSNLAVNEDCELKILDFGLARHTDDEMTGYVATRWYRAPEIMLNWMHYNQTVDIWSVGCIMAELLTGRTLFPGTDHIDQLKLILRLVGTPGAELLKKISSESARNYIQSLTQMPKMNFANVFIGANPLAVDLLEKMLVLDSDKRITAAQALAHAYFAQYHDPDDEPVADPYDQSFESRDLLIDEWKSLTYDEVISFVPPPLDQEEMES

The term IC50 denotes the concentration needed to halve the response being measured. Read a high IC50 as lower potency. In turn, `CC(C)Nc1ncc(-c2ccc3nncn3c2)s1` [Example 12] yielded an IC50 of 581 nM.
